{
  "source": "patent US4017637A",
  "about": "“Benzylamine analgesics” (priority 1975, dated 1977)",
  "system": "rats",
  "assay": "Analgesic activity in rats, light beam on tip of tail (modified D'Amour and Smith procedure)",
  "assay_type": "in vivo, rat",
  "conditions": "for ED50: Rattus norvegicus",
  "description": "Rats weighing approximately 150 to 200 g. are placed in individual holders, and each holder in turn is situated so that a high intensity light beam shines on the tip of the tail. The intensity of the light beam is adjusted so that normal rats respond by moving their tails out of the light beam in 3 to 8 seconds. The average of two readings taken 20 minutes apart serves as a pre-drug control. Rats are selected for use whose control readings agree within 1 second. Compounds are administered and reaction times are measured every 20 minutes for 2 hours. Analgesic agents cause a significant increase in reaction time.",
  "note": "Where a name gives a salt, the structure may show the parent alone.",
  "data": [
    {"smiles": "CN(C)C(c1ccccc1)[C@H]1CCCC[C@H]1O", "note": "(relative stereo) [Cis-2-[α-Dimethylaminobenzyl]-Cyclohexanol]", "values": [
      {"measurement": "No. Rats Showing Analgesia/No. Rats Tested", "setting": "I.M., 6.25 mg/kg", "result": "8/10"},
      {"measurement": "No. Rats Showing Analgesia/No. Rats Tested", "setting": "I.P., 6.25 mg/kg", "result": "9/10"},
      {"measurement": "No. Rats Showing Analgesia/No. Rats Tested", "setting": "I.P., 12.5 mg/kg", "result": "8/10"},
      {"measurement": "No. Rats Showing Analgesia/No. Rats Tested", "setting": "P.O., 5.0 mg/kg", "result": "6/10"}
    ]},
    {"smiles": "CN1CC[C@]23c4c5ccc(O)c4O[C@H]2[C@@H](O)C=C[C@H]3[C@H]1C5", "note": "[morphine, reference compound]", "values": [
      {"measurement": "ED50", "setting": "im", "result": 2, "unit": "mg/kg"},
      {"measurement": "ED50", "setting": "ip", "result": 3.5, "unit": "mg/kg"},
      {"measurement": "ED50", "setting": "po", "result": 10, "unit": "mg/kg"}
    ]},
    {"smiles": "COCOc1cccc(C([C@H]2CCCC[C@H]2O)N(C)C)c1", "note": "(relative stereo) [cis-2-[α-dimethylamino-m-(methoxymethoxy)benzyl]cyclohexanol]", "values": [
      {"measurement": "No. Rats Showing Analgesia/No. Rats Tested", "setting": "I.M., 2.5 mg/kg", "result": "3/10"},
      {"measurement": "No. Rats Showing Analgesia/No. Rats Tested", "setting": "I.M., 5.0 mg/kg", "result": "5/10"},
      {"measurement": "No. Rats Showing Analgesia/No. Rats Tested", "setting": "I.P., 6.25 mg/kg", "result": "2/5"},
      {"measurement": "No. Rats Showing Analgesia/No. Rats Tested", "setting": "I.P., 25.0 mg/kg", "result": "5/5"}
    ]},
    {"smiles": "COc1cccc(C([C@H]2CCCC[C@H]2O)N(C)C)c1", "note": "(relative stereo) [cis-2-(α-dimethylamino-m-methoxybenzyl)cyclohexanol]", "values": [
      {"measurement": "No. Rats Showing Analgesia/No. Rats Tested", "setting": "I.P., 25.0 mg/kg", "result": "3/5"}
    ]},
    {"smiles": "CN(C)C(c1cccc(O)c1)[C@H]1CCCC[C@H]1O", "note": "(stereo partly drawn) [Cis-2-(α-Dimethylamino-m-Hydroxybenzyl) Cyclohexanol, Hydrochloride]", "values": [
      {"measurement": "No. Rats Showing Analgesia/No. Rats Tested", "setting": "I.M., 2.5 mg/kg", "result": "5/10"},
      {"measurement": "No. Rats Showing Analgesia/No. Rats Tested", "setting": "I.P., 3.12 mg/kg", "result": "3/5"},
      {"measurement": "No. Rats Showing Analgesia/No. Rats Tested", "setting": "I.P., 12.5 mg/kg", "result": "4/5"},
      {"measurement": "No. Rats Showing Analgesia/No. Rats Tested", "setting": "P.O., 5.0 mg/kg", "result": "5/10"}
    ]},
    {"smiles": "CN(C)C(c1cccc(O)c1)[C@H]1CCCC[C@H]1O", "note": "(relative stereo) [1-cis-2-(α-dimethylamino-m-hydroxybenzyl)cyclohexanol]", "values": [
      {"measurement": "No. Rats Showing Analgesia/No. Rats Tested", "setting": "I.M., 0.41 mg/kg", "result": "4/10"},
      {"measurement": "No. Rats Showing Analgesia/No. Rats Tested", "setting": "I.M., 0.62 mg/kg", "result": "7/10"},
      {"measurement": "No. Rats Showing Analgesia/No. Rats Tested", "setting": "I.P., 3.12 mg/kg", "result": "8/10"},
      {"measurement": "No. Rats Showing Analgesia/No. Rats Tested", "setting": "I.P., 6.25 mg/kg", "result": "6/10"},
      {"measurement": "No. Rats Showing Analgesia/No. Rats Tested", "setting": "P.O., 3.12 mg/kg", "result": "5/10"},
      {"measurement": "No. Rats Showing Analgesia/No. Rats Tested", "setting": "P.O., 6.25 mg/kg", "result": "7/10"}
    ]},
    {"smiles": "CCC(=O)O[C@@H]1CCCC[C@@H]1C(c1cccc(OC)c1)N(C)C.Cl", "note": "(relative stereo) [Cis-2-[α-Dimethylamino-m-Methoxybenzyl]Cyclohexanol Propionate, Hydrochloride]", "values": [
      {"measurement": "No. Rats Showing Analgesia/No. Rats Tested", "setting": "I.M., 15.0 mg/kg", "result": "3/10"},
      {"measurement": "No. Rats Showing Analgesia/No. Rats Tested", "setting": "I.P., 12.5 mg/kg", "result": "3/5"}
    ]}
  ]
}
